Test results published in ChEMBL document CHEMBL1671692, “Intravenous voriconazole after toxic oral administration” (Antimicrob Agents Chemother, 2010).

Key:
Type in all cases: organism-based
[1] = tested on: Homo sapiens; experiment: Toxicity in sphenoid sinus human patient assessed as occurrence of cutaneous reaction with red striae treatment increased upto 300 mg, po QID by biopsy hostopathological analysis; details: in vivo
[2] = tested on: Homo sapiens; experiment: Toxicity in sphenoid sinus human patient assessed as occurrence of extended interface dermatitis with vacuolar alteration of the basilar epidermis treatment increased upto 300 mg, po QID by biopsy hostopathological analysis; details: in vivo
[3] = tested on: Homo sapiens; experiment: Toxicity in sphenoid sinus human patient assessed as occurrence of superficial edema treatment increased upto 300 mg, po QID by biopsy hostopathological analysis; details: in vivo
[4] = tested on: Homo sapiens; experiment: Toxicity in sphenoid sinus human patient assessed as occurrence of pseudoporphyria treatment increased upto 300 mg, po QID by biopsy hostopathological analysis; details: in vivo
[5] = tested on: Homo sapiens; experiment: Toxicity in sphenoid sinus human patient assessed as occurrence of epidermolysis bullosa acquisita treatment increased upto 300 mg, po QID by biopsy hostopathological analysis; details: in vivo
[6] = tested on: Homo sapiens; experiment: Toxicity in sphenoid sinus human patient assessed as occurrence of erythema multiforme treatment increased upto 300 mg, po QID by biopsy hostopathological analysis; details: in vivo
[7] = tested on: Homo sapiens; experiment: Toxicity in sphenoid sinus human patient assessed as mild elevations in liver enzyme level treatment increased upto 500 mg, iv BID for 8 weeks; details: in vivo, 1344 h
[8] = tested on: Homo sapiens; experiment: Toxicity in sphenoid sinus human patient assessed as recurrence of the cutaneous reaction treatment increased upto 500 mg, iv BID for 8 weeks; details: in vivo, 1344 h
[9] = tested on: Homo sapiens; experiment: Toxicity in sphenoid sinus human patient assessed as desensitization to several types of adverse reactions at 500 mg, iv BID after 8 weeks; details: in vivo, 1344 h
[10] = tested on: Homo sapiens; experiment: Toxicity in sphenoid sinus human patient assessed as increase in liver enzyme level treatment increased upto 300 mg, iv QID for 8 weeks measured after 2 weeks of treatment discontinuation; details: in vivo
[11] = tested on: Homo sapiens; experiment: Toxicity in sphenoid sinus human patient assessed as apoptotic or necrotizing keratinocytes treatment increased upto 300 mg, po QID; details: in vivo
[12] = tested on: Homo sapiens; experiment: Toxicity in sphenoid sinus human patient assessed as increase in liver enzyme level treatment increased upto 300 mg, iv QID relative to control; details: in vivo
[13] = tested on: Homo sapiens; experiment: Toxicity in sphenoid sinus human patient assessed as inflammatory infiltration treatment increased upto 300 mg, po QID by biopsy hostopathological analysis; details: in vivo
[14] = tested on: Homo sapiens; experiment: Toxicity in sphenoid sinus human patient assessed as cutaneous reaction treatment increased upto 300 mg, iv QID for 8 weeks measured after 2 weeks of treatment discontinuation; details: in vivo

C[C@@H](c1ncncc1F)[C@](O)(Cn1cncn1)c1ccc(F)cc1F [VORICONAZOLE] was tested, and the Activity [1] was “Toxic”, the Activity [2] was “Toxic” and the Activity [3] was “Toxic”. For the same compound, the Activity [4] was “Toxic”, the Activity [5] was “Toxic” and the Activity [6] was “Toxic”. The Activity [7] was “Toxic”, the Activity [8] was “Non-toxic” and the Activity [9] was “Non-toxic”. For the same compound, the Activity [10] was “Non-toxic”, the Activity [11] was “Non-toxic” and the Activity [12] was “Toxic”. The Activity [13] was “Non-toxic” and the Activity [14] was “Non-toxic”.
